Reference: patent US20120309798A1, “Tumour Treatment Agents and Method” (Vivolux AB, priority 2009, published 2012)
Read-outs that look alike come from different tables or passages of the source.

Tests used:
[1] = system: Ovarian carcinoma patient tumor cells (PHTC); test: FMCA, patient tumor samples, ovarian carcinoma; format: cell-based, human
Description: (§1) Cell culture. Patient tumor samples (98) and preparations (4) of normal peripheral blood mononuclear cells (PBMC), detailed in Table 1, were used to determine the activity of VLX50 and, for comparison, six other cytotoxic drugs chosen to represent different mechanistic classes.
(§2) The tumor samples were obtained by bone marrow/peripheral blood sampling, routine surgery or diagnostic biopsy. Leukemic cells and PBMCs were isolated by 1.077 g ml-1 Ficoll-Paque centrifugation (Larsson et al., 1992). Tumor tissue from solid tumor samples was minced into small pieces and tumor cells were isolated by collagenase dispersion followed by Percoll density gradient centrifugation (Csoka et al., 1994). The sampling of primary tumor cells was approved by the local ethics committee at Uppsala University Hospital. Cell viability was determined by trypan blue exclusion test and the proportion of tumor cells in the preparation was judged by inspection of May-Grunvald-Giemsa stained cytospin slides (FIG. 1a). All samples used in this study contained more than 70% tumor cells.
Fluorometric Microculture Cytotoxicity Assay. The Fluorometric Microculture Cytotoxicity Assay, FMCA, described in detail previously (Lindhagen et al., 2008), is based on measurement of fluorescence generated from hydrolysis of fluorescein diacetate (FDA) to fluorescein by cells with intact plasma membranes. […] The plates were incubated for 72 h and then transferred to an integrated HTS SAIGAN Core System consisting of an ORCA robot (Beckman Coulter) with CO2 incubator (Cytomat 2C, Kendro, Sollentuna, Sweden), dispensor module (Multidrop 384, Titertek, Huntsville, Ala.), washer module (ELx 405, Bio-Tek Instruments Inc), delidding station, plate hotels, barcode reader (Beckman Coulter), liquid handler (Biomek 2000, Beckman Coulter) and a multipurpose reader (FLUOstar Optima, BMG Labtech GmbH, Offenburg, Germany) for automated FMCA. Quality criteria for a successful assay included a mean coefficient of variation of less than 30% in the control and a fluorescence signal in control wells of more than 5 times the blank. […]

[2] = system: MCF-7 cell cultures; test: Effect of extracellular Fe on VLX50 induced cell death; format: cell-based; settings: MCF-7, extracellular iron added
[3] = system: ROS formation; test: ROS formation; settings: in contrast to triapine
[4] = system: AML (Acute Myelocytic Leukemia) patient tumor cells; test: FMCA, patient tumor samples, AML; format: cell-based; settings: Homo sapiens
Description: as §1
as §2, with “The sampling of primary tumor cells was approved by the local ethics committee at Uppsala University Hospital.” left out, “All samples used in this study contained more than 70% tumor cells.” left out
(§3) Fluorometric Microculture Cytotoxicity Assay. The Fluorometric Microculture Cytotoxicity Assay, FMCA, described in detail previously (Lindhagen et al., 2008), is based on measurement of fluorescence generated from hydrolysis of fluorescein diacetate (FDA) to fluorescein by cells with intact plasma membranes. […] Quality criteria for a successful assay included a mean coefficient of variation of less than 30% in the control and a fluorescence signal in control wells of more than 5 times the blank. […]

[5] = system: MCF-7 tumor cells; test: Mode of cell death: time lapse phase contrast microscopy and multiparametric HCS (Arrayscan II); format: cell-based
Experimental: Multiparametric high content screening assays. To study the cell death characteristics a multi-parametric high content screening (HCS) assay was used (Cellomics cytotoxicity HitKit™) and an HCS assay for measurement of apoptosis, which has been described in detail previously (Lovborg et al., 2004). The cells (1500 cells/well) were seeded into flat-bottomed 96-well plates (Perkin Elmer Inc., Wellesley, Mass.) and were left to attach before addition of drugs. For the cytotoxicity assay the cytotoxicity HitKit™ reagents (Cellomics Inc., Pittsburgh, Pa., USA) was used according to the manufacturer's instructions. Multi-parameter cytotoxicity HitKit™ contains a nuclear dye, a cell permeability dye, and a lysosomal mass/pH indicator. In the apoptosis assay FAM-DEVD-FMK (part of the CaspaTag Kit, Chemicon, Temecula, Calif.) at a final concentration of 20 μM was added one hour before the end of the drug exposure to stain activated caspase-3 and partly caspase-7. The staining solution was removed and the plates were washed twice with PBS followed by a 30 min fixation in 3.7% formaldehyde and nuclear staining with 10 μM Hoechst 33342 (Sigma). Plates were then washed twice. The plates were centrifuged before each aspiration to avoid loss of cells detached due to toxic stimuli. Processed plates were kept at +4° C. for up to 24 h before analysis. Plates were analyzed using the ArrayScan™ HCS software (Cellomics Inc). The system is a computerized automated fluorescence-imaging microscope that automatically identifies stained cells and reports the intensity and distribution of fluorescence in individual cells. Images were acquired for each fluorescence channel, using suitable filters with 20× objective. In each well at least 800 cells were analyzed. Images and data were stored in a Microsoft SQL database.
Phase contrast microscopy. Time lapse phase contrast microscopy was performed using an automated Incucyte phase contrast microscope. MCF-7 cells (10,000/well) were plated on 24-well ImageLock plates (Essen Instruments, Ann Arbor, Mich.) and cultured in RPMI 1640 media containing 10% fetal bovine serum and antibiotics. The plates were immediately placed into IncuCyte imaging system (Essen Instruments). The chamber is designed to fit into a standard, humidified, CO2 incubator in an atmosphere of 5% CO2, and a moving objective allows the cell culture to be stationary while images are captured at different positions from well to well. Images were collected at hourly intervals starting 30 minutes after addition of the plate to the IncuCyte-FLR chamber. Drug treatment was performed 24 hours after the plates were placed in the Incucyte. Cell density was calculated using the Incucyte software. […]

[6] = system: CML (Chronic Myelocytic Leukemia) patient tumor cells; test: FMCA, patient tumor samples, CML; format: cell-based; settings: Homo sapiens
Description: as §1
as §2, with “The sampling of primary tumor cells was approved by the local ethics committee at Uppsala University Hospital.” left out, “All samples used in this study contained more than 70% tumor cells.” left out
as §3

[7] = system: NHL (Non-Hodgkins Lymphoma) patient tumor cells; test: FMCA, patient tumor samples, NHL; format: cell-based; settings: Homo sapiens, range over n=13 samples
Description: as §1
as §2, with “The sampling of primary tumor cells was approved by the local ethics committee at Uppsala University Hospital.” left out, “All samples used in this study contained more than 70% tumor cells.” left out
as §3

- IC50 ([1]; Homo sapiens, 72 h, n=14, 72 h FMCA, read-out: Median IC50): < 5 µM
- IC50 ([1]; Homo sapiens, range over n=14 samples, read-out: IC50 Range): 0.26 to 40 µM
- IC50 ([1]; n=14, 72 h FMCA, read-out: Median IC50): 3.46 µM
- ROS formation [3]: does not appear to induce ROS formation
- IC50 ([4]; n=10, 72 h FMCA, read-out: Median IC50): 5.35 µM
- IC50 ([4]; range over n=10 samples, read-out: IC50 Range): 0.67 to 40 µM
- IC50 ([6]; n=3, 72 h FMCA, read-out: Median IC50): 5.13 µM
- IC50 ([6]; range over n=3 samples, read-out: IC50 Range): 2.1 to 6.42 µM
- IC50 [7]: 0.28 to 40 µM
Structure (SMILES): COCCCNC(=S)N/N=C\c1ccccn1 [VLX50, N1-(3-methoxypropyl)-2-(pyridylmethylidene)-hydrazine-1-carbothioamide]
- VLX50 activity on adding extracellular iron [2]: dose-dependent decrease
- Caspase-3 activity ([5]; MCF-7, 48-72 h): increase
- Cell density ([5]; MCF-7, 48-72 h): gradual decrease
- DNA fragmentation ([5]; MCF-7, 48-72 h): increase
- Effect on growth and viability ([5]; MCF-7, 24 h): little or no effect
